From patent publication US11345696B2, “Compounds and methods of treating or ameliorating an IL-1R-mediated disease or disorder using same” (DREXEL UNIVERSITY, priority 2014, dated 2022)

How the values were obtained:
[1] = tested on: normal fibroblasts stimulated with bleomycin; assay: Bleomycin induced fibrosis in vitro model: normal fibroblasts stimulated with bleomycin, hydroxyproline in culture media; assay type: cell-based; conditions: for IC50: Fibroblast, decreasing concentrations of compound against 10 μM bleomycin, 48 h, hydroxyproline in culture media (FIG. 9); for blocking collagen synthesis: in vitro, normal fibroblasts stimulated with 10 μM bleomycin
Method: FIG. 7 is a set of bar graphs illustrating the finding that compounds of the invention are effective against bleomycin induced fibrosis in an in vitro model. Top graph: normal fibroblasts stimulated with bleomycin (Bleo)+IL-1RA (n=3); bottom graph: normal fibroblasts stimulated with Bleo+KA862 (n=3).
FIG. 9 is a set of graphs illustrating the IC50 determination for KA521, KA222, KA306, and KA695. Decreasing concentrations of compound were tested against 10 μM bleomycin for 48 h and hydroxyproline measured in the culture media.
Without wishing to be limited by any theory, designing a focused screening library allows for the identification of analogs with favorable drug-like properties and binding efficacy against IL-1R. Compounds of interest may be tested in vitro using patient-derived scleroderma fibroblasts, normal fibroblasts treated with bleomycin to increase collagen synthesis, and in vivo in scleroderma animal models.
FIG. 7 illustrates the finding that compounds of the invention are effective against bleomycin induced fibrosis. Normal fibroblasts were treated with bleomycin and either IL-1RA or a compound of the invention, so as to inhibit collagen.

SSc fibroblasts = assay: Total collagen (hydroxyproline) in culture media of SSc fibroblasts; assay type: cell-based; conditions: for total collagen secretion into the culture media as measured by hydroxyproline: SSc dermal fibroblasts, 48 h, 100 μM or 10 μM compound (FIG. 5); for blocking collagen synthesis: in vitro, fibroblasts derived from scleroderma patients
Method: FIG. 5 is a set of graphs illustrating target validation studies. […] SSc dermal fibroblasts were treated for 48 h with 100 μM or 10 μM of compound, then media was collected and total collagen was measured by hydroxyproline. Samples were tested in triplicate across different patient samples and expressed as the mean±SEM (n=4). *p<0.0001, **p=0.02.
SSc fibroblasts were treated for 48 h with 1 nM compound, and then culture media was recovered and hydroxyproline was measured. Samples were tested in triplicate across different patient samples and expressed as the mean±SEM (n=3 independent patient samples).
SSc fibroblasts were cultured with selected molecules of the invention, and total collagen synthesis was assessed with hydroxyproline. […] KA862 and KA494 were selected for further in vitro evaluation.

Compound	IC50 [1] [nM]	total collagen secretion into the culture media as measured by hydroxyproline (SSc fibroblasts)	blocking collagen synthesis (SSc fibroblasts)	blocking collagen synthesis [1]
COC(=O)C1=C(C)NC2=C(C(=O)CC(c3ccc(OC)c(OC)c3)C2)C1c1cccc2ccccc12 (stereo not drawn) [KA306, methyl 7-(3,4-dimethoxyphenyl)-2-methyl-4-(naphthalen-1-yl)-5-oxo-1,4,5,6,7,8-hexahydroquinoline-3-carboxylate]	~1	–	–	–
Cc1nn(-c2ccccc2)c2c1C(c1c(O)ccc3ccccc13)C(C#N)=C(N)O2 (stereo not drawn) [KA222, 6-amino-4-(2-hydroxynaphthalen-1-yl)-3-methyl-1-phenyl-1,4-dihydropyrano[2,3-c]pyrazole-5-carbonitrile]	~1	–	–	–
COc1cccc(NC(=O)Cn2nc(-c3ccncc3)nc2SCC(=O)NC2CCCC2)c1 [KA529, (2-[5-{[2-(cyclopentylamino)-2-oxoethyl]sulfanyl}-3-(4-pyridinyl)-1H-1,2,4-triazol-1-yl]-N-(3-methoxyphenyl)acetamide)]	–	effective at reducing total collagen secretion	–	–
COCCOC(=O)C1=C(C)NC2=C(C(=O)CCC2)C1c1cccc2ccccc12 (stereo not drawn) [KA695, 2-methoxyethyl 2-methyl-4-(naphthalen-1-yl)-5-oxo-1,4,5,6,7,8-hexahydroquinoline-3-carboxylate]	~1	–	–	–
O=C(CSc1nnc(Cc2csc(Nc3cccc(Cl)c3)n2)n1Cc1ccco1)OC1CCCCC1 [KA862, cyclohexyl 2-((5-((2-((3-chlorophenyl)amino)thiazol-4-yl)methyl)-4-(furan-2-ylmethyl)-4H-1,2,4-triazol-3-yl)thio)acetate]	–	effective at reducing total collagen secretion	efficacious in blocking collagen synthesis	efficacious in blocking collagen synthesis
O=C(C[S+]([O-])CC(=O)N(CC(=O)NC1CCCC1)Cc1ccccc1Cl)Nc1ccc2c(c1)OCO2 (stereo not drawn) [KA680, (N^2-({[2-(1,3-benzodioxol-5-ylamino)-2-oxoethyl]sulfinyl}acetyl)-N^2-(2-chlorobenzyl)-N-cyclopentylglycinamide)]	–	effective at reducing total collagen secretion	–	–
O=C(C[S+]([O-])CC(=O)N(CC(=O)NC1CCCCC1)c1cccc2ccccc12)Nc1ccc(F)cc1 (stereo not drawn) [KA494, N-(2-(cyclohexylamino)-2-oxoethyl)-2-((2-((4-fluorophenyl)amino)-2-oxoethyl)sulfinyl)-N-(naphthalen-1-yl)acetamide]	–	effective at reducing total collagen secretion	efficacious in blocking collagen synthesis	efficacious in blocking collagen synthesis
O=C(CN(Cc1ccc2c(c1)OCO2)S(=O)(=O)c1ccc(S(=O)(=O)NC2CCCC2)cc1)Nc1ccccc1 [KA199, N^2-(1,3-benzodioxol-5-ylmethyl)-N^2-{[4-(cyclopentylsulfamoyl)phenyl]sulfonyl}-N-phenyl glycinamide]	–	effective at reducing total collagen secretion	–	–
